Laboratory results taken from paper PMC11096368, “Transcriptomic signature, bioactivity and safety of a non-hepatotoxic analgesic generating AM404 in the midbrain PAG region” (Scientific Reports, 2024).

Legend:
[1] = 5-day repeat-dose oral toxicity and toxicokinetic study (non-GLP); assay type: in vivo, rats; conditions: Sprague-Dawley, rat, blood, po
Procedure: (§1) As part of a two-phase study, repeat-dose toxicity and toxicokinetics of SRP-001, when administered via oral gavage once daily to Sprague–Dawley rats for 5 d, was done (Calvert Labs/Altasciences, Scott Township, PA USA). The doses selected for Phase II were based on the results of Phase I. SRP-001 was administered to 20 naïve rats (5/group in Groups 5–8) once daily for 5 days via oral gavage for toxicology evaluation and once to 18 naïve rats (6/group in Groups 9–11) for toxicokinetic evaluation.
(§2) Mortality/morbidity was performed twice daily and once prior to sacrifice. Clinical observations were evaluated prior to each dose administration and approximately 1–3 h post-dose for animals in Groups 5–8. Body weights were recorded prior to randomization/selection, prior to dose administration on day 1 for animals in Groups 5–11, and prior to dose administration on day 5 for Groups 5–8. Food consumption was recorded for animals from Groups 5–8 on day 5. Blood for evaluation of hematology, coagulation and clinical chemistry and urine for urinalysis was collected from animals in Groups 5–8 on day 6. All animals in Groups 5–8 were sacrificed on […]. Selected tissues were harvested at necropsy, selected organs weighed, and selected tissues preserved. Blood for toxicokinetic evaluation was collected from animals in Groups 9–11 at selected timepoints on day 1 to ensure comprehensive data capture. These timepoints include 0 h (pre-dose) and post-dose intervals of 1, 2, 4, 8, and 24 h on both Day 1 and […] of the study. This schedule allows for a robust assessment of SRP-001's pharmacokinetic profile, including absorption, distribution, metabolism, and excretion and is in line with current FDA-guidelines for GLP studies.
(§3) Clinical signs included soft feces, brown staining of the anogenital area, and a few instances of red staining of the muzzle. […] Half-lives were 6.19 and 6.86 h at mid and high doses, respectively. […] Based on these observations, SRP-001 was considered to be tolerated at 1200 mg/kg when administered once daily for 5 consecutive days.

Sprague–Dawley rats = assay: as above; assay type: in vivo
Procedure: as §1, §2, §3

hERG current = target: T1, hERG current (Homo sapiens, UniProt Q12809); assay: Cardiotoxicity assay (hERG); assay type: cell-based; conditions: human embryonic kidney cells
T1 construct: expressed in transfected cells; host or cells: human embryonic kidney cells
Procedure: The effects of SRP-001 on hERG current amplitude at physiologic temperatures were evaluated over a nominal concentration range of 0.1 μM to […]. A vehicle group (10% DMSO) was included in the study for comparison, and dofetilide (10 nM) was used as a reference substance. The vehicle and positive controls indicated appropriate sensitivity of the test systems. […] Next, the potential acute effects of oral SRP-001 on cardiovascular function in conscious telemetered beagle dogs was done using a Latin Square design; 4 male naïve beagle dogs each received vehicle (10% DMSO: 10% labrasol: 80% PEG400) and three doses (30, 90, and 150 mg/kg) of SRP-001 nanosuspension by oral gavage. […] A single dose was administered on the day of dosing, and a washout period of seven days was allowed between doses. One-min means of hemodynamic parameters, as well as ECG parameters and body temperature, were measured for a period of at least 24 h. One-min tracings of the ECGs were obtained at 15 min prior to dosing and at 30 min, 1, 2, 4, 8, 12, and 24 h post-dose. Qualitative evaluation of the ECGs was done by a board-certified veterinary cardiologist.

[2] = LC–MS/MS detection of D10-SRP-001 and AM404 in the periaqueductal gray (PAG); assay type: in vivo, rats; conditions: 32 mg/kg ip, 30 min post-injection, rats with CFA or vehicle
Procedure: Next, we sought to define the uptake of SRP-001 in the nociception area of the brain, the midbrain’s periaqueductal (PAG) area[42],[43]. Thirty min following ip-SRP-001 administration (32 mg/kg), the PAG was harvested and analyzed by LC/MS–MS. D10-SRP-001 was used to match the fragmentation pattern while monitoring analytes.
Deuterated compound D10-SRP-001 was synthesized by Olon Ricerca Bioscience (Concord, OH), and purity was determined to be > 99.9% by HPLC. This was used as pure analytical standard for detection of SRP-001 using an LC–MS/MS method. Similarly, pure analytical standard of AM404 (10 ng/mL) obtained from Cayman Chemical (Ann Arbor, MI) was used to characterize the full fragmentation pattern of AM404. […] Thirty min post-injection, the animals were sacrificed (same as in the CFA/von Frey model), their brains harvested, and the midbrain periaqueductal gray (PAG) region excised. SRP-001 or AM404 were extracted from the PAG using a liquid–liquid extraction method using 1:1 MeOH:H2O for LC–MS/MS and were loaded onto a liquid chromatography-tandem mass spectrophotometer for analysis. The mass spectrophotometer was operated in multiple reaction monitoring (MRM) mode using positive ion electrospray. D10-SRP-001 was detected by monitoring the m/z transition 416 → 186. AM404 was detected by monitoring the m/z transition 396 → 287.

T1 sequence (Q12809 whole entry): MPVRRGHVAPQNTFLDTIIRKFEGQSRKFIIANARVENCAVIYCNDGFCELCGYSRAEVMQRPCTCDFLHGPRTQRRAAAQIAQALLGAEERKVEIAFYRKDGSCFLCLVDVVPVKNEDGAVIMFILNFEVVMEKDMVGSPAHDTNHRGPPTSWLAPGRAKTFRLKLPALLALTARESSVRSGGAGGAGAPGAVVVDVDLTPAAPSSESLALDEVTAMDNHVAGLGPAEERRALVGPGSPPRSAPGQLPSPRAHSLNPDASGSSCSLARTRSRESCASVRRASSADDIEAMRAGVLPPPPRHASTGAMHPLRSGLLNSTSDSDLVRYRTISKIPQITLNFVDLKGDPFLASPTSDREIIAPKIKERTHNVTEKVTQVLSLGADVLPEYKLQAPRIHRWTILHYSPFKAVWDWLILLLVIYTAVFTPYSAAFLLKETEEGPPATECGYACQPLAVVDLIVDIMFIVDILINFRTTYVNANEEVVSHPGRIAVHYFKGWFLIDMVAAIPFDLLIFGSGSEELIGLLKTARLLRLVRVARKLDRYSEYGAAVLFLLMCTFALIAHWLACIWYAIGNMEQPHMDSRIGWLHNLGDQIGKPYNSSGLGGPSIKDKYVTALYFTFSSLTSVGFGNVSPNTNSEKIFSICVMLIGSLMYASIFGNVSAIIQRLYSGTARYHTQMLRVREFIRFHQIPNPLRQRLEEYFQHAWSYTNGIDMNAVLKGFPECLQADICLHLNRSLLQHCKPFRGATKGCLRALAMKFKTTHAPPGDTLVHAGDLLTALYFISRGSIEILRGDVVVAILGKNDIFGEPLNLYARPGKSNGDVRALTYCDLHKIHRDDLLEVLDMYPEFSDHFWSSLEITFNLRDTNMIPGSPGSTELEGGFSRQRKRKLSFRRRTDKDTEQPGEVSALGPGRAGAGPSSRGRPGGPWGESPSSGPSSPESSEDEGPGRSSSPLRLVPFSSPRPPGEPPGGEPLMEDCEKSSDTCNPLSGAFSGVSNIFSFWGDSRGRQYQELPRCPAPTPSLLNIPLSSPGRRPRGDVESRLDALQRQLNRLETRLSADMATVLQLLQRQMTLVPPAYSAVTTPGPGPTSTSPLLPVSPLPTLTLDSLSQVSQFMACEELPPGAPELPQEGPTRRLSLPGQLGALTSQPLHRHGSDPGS

SMILES | half-life ([1]; high dose) | Tmax ([1]; low dose) | Tmax ([1]; mid and high doses) | half-life ([1]; mid dose) | AUC and Cmax levels versus dose (Sprague–Dawley rats; day 1) | Dose considered to be tolerated (Sprague–Dawley rats; once daily for 5 consecutive days) | Liver weights and cholesterol levels (Sprague–Dawley rats; once daily for 5 days) | Signal in in vitro hERG assay (hERG current) | AM404 production in the periaqueductal gray region [2]
CCN(CC)C(=O)c1ccccc1S(=O)(=O)NCC(=O)Nc1ccc(O)cc1 [SRP-001, N,N-diethyl-2-[[2-(4-hydroxyanilino)-2-oxo-ethyl]sulfamoyl]benzamide] | 6.86 h | 3 h | 4.5 h | 6.19 h | increased in a dose-dependent manner | 1200 mg/kg | Test article-related increases | absent relevant signal | 
CC(=O)Nc1ccc(O)cc1 [ApAP, acetaminophen, reference compound] |  |  |  |  |  |  |  |  | diminished
